From patent publication US7871808B2, “Isolated microorganism having an ability to produce L-histidine” (priority 1999, dated 2011)
Where a name gives a salt, the structure may show the parent alone.

System: mutant strain H-9341
Assay: Comparative test of growth on agar plate culture medium containing primaquine (mutant strain)
Assay type: cell-based, Escherichia coli
Settings: 150 mg/liter primaquine disodium salt in agar plate medium, 1 to 10 cells/cm^2, 33° C. for 4 days

Question: Which “Growth or non-growth of the strain on agar plate medium” value does the source give for `COc1cc(NC(C)CCCN)c2ncccc2c1` (stereo not shown) [Primaquine disodium salt, primaquine disodium salt] here?
Answer: +
